Here are results for one molecule from patent US20250386825A1, “Formulation for Applying to Vegetation” (Okipa Ltd, priority 2022, published 2025).

The subject of the test is potato leaves. The following applies: for damage on Aug. 8, 2022 (rating score) / damage on Aug. 16, 2022 (rating score) / damage on Aug. 22, 2022 (rating score): treatment on Aug. 5, 2022, Braunschweig, score 0-10, * p < 0.05 vs untreated. As for the experimental part: In addition to the direct control of weeds in arable farming and on non-crop land, the use of sodium saccharin for desiccation of potatoes was examined. Thus, the following variants were tested in a field test (soil type: sandy loam): (a) untreated, (b) 160 g/l and (c) 320 g/l sodium saccharin. In this example, the addition of an additive was deliberately avoided in order to assess the specific effect of sodium saccharin. The experimental design was a fully randomized block design with 3 replicates and a plot size of 2.25 m^2.
In each case, a row of potatoes 3 m in length was applied using a 5 l hand-held sprayer (®Gloria) with a conventional annular nozzle at a pressure of 3-4 bar. As a result, the degree of damage was recorded in the form of the following rating score.
Score (damage) of the potato leaves after treatment with Sodium saccharin (treatment on Aug. 5, 2022, Braunschweig, conventional cultivation)

SMILES strings stand for the structures. Like-named read-outs stand apart in the source and are kept apart here.

For `O=C1NS(=O)(=O)c2ccccc21.[Na]` [Sodium saccharin, sodium saccharin], under “160 g/l, no additive”, the “damage on Aug. 8, 2022 (rating score)” value is reported as 1.3*; the “damage on Aug. 16, 2022 (rating score)” value is 5.3*; the “damage on Aug. 22, 2022 (rating score)” value is 8.3*. Further, under “320 g/l, no additive”, the “damage on Aug. 8, 2022 (rating score)” value was 3.3*; the “damage on Aug. 16, 2022 (rating score)” value is reported as 7.7*; the “damage on Aug. 22, 2022 (rating score)” value is on record as 9.3*. Further, the “desiccation of potato leaves (trend in words)” value (field test, 160 g/l and 320 g/l, no additive) is reported as “sufficiently desiccated”. In addition, the “desiccation of potato leaves (in words)” value (low concentration (160 g/l), after 17 days) was “sufficient desiccation”.
